Test results from ChEMBL document CHEMBL1141030, “Synthesis and biological evaluation of phloridzin analogs as human concentrative nucleoside transporter 3 (hCNT3) inhibitors” (Bioorg Med Chem Lett, 2009).

Key:
[1] = biological target: T1, Solute carrier family 28 member 3 (Homo sapiens, UniProt Q9HAS3); experiment: Binding affinity to human recombinant CNT3 expressed in pig PK15NTD cells assessed as [3H]uridine uptake by beta-scintillation counter; type: cell-based
T1 sequence (Q9HAS3 whole entry): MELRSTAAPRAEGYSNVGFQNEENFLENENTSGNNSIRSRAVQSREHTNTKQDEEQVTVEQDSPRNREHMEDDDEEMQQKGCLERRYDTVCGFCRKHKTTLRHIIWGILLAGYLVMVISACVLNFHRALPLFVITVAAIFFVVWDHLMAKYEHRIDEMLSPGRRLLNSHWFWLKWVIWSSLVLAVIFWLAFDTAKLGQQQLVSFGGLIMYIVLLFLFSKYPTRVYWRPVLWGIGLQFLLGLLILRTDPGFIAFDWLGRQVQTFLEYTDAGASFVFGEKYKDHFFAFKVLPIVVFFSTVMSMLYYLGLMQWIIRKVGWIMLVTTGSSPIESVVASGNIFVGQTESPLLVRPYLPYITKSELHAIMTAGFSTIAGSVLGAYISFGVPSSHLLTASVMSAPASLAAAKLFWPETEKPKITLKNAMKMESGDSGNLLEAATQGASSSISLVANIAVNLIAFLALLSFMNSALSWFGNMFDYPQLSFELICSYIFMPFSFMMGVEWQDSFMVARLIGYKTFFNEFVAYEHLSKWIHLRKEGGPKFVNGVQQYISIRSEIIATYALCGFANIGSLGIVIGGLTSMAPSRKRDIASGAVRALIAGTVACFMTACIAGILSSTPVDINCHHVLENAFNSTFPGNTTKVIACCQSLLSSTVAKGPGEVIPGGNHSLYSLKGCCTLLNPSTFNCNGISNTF

[2] = biological target: T2, Sodium/nucleoside cotransporter 1 (Homo sapiens, UniProt O00337); experiment: Inhibition of human CNT1
T2 sequence (O00337 whole entry): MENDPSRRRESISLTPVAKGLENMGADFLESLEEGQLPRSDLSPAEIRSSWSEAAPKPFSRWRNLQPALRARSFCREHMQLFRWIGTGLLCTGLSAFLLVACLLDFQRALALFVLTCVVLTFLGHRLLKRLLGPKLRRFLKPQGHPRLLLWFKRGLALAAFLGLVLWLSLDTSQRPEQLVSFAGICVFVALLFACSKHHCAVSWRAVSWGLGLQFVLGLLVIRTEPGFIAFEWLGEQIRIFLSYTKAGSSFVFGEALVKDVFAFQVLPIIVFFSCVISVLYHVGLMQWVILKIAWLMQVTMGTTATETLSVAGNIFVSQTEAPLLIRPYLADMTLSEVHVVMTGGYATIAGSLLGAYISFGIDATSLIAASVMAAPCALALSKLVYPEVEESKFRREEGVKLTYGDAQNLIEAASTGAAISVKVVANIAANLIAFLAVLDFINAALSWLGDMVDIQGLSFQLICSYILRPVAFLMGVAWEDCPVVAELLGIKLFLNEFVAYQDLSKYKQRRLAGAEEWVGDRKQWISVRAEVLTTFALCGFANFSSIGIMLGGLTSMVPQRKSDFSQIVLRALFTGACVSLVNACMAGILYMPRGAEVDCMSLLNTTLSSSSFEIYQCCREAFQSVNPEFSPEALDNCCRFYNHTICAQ

[3] = biological target: T3, Sodium/nucleoside cotransporter 2 (Homo sapiens, UniProt O43868); experiment: Inhibition of human CNT2
T3 sequence (O43868 whole entry): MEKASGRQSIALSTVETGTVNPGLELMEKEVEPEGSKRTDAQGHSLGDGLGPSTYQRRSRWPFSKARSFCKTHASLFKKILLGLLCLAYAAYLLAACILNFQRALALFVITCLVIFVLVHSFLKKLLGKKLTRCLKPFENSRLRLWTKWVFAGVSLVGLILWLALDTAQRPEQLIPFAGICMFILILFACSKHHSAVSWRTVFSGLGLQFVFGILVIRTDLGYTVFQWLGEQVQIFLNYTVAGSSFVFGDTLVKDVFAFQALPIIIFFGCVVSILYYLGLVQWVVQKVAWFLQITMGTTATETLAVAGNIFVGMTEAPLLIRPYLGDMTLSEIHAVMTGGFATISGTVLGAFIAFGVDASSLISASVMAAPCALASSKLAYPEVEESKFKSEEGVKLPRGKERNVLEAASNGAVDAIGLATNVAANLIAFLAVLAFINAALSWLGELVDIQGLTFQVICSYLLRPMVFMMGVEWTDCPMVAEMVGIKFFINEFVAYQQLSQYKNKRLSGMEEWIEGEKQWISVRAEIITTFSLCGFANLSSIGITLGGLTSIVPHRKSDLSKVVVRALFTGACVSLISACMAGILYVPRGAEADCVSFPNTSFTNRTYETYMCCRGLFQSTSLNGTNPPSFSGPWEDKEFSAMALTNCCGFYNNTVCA

[4] = biological target: T4, Equilibrative nucleoside transporter 1 (Homo sapiens, UniProt Q99808); experiment: Binding affinity to human ENT1 assessed as [3H]uridine uptake by flow cytometry
T4 sequence (Q99808 whole entry): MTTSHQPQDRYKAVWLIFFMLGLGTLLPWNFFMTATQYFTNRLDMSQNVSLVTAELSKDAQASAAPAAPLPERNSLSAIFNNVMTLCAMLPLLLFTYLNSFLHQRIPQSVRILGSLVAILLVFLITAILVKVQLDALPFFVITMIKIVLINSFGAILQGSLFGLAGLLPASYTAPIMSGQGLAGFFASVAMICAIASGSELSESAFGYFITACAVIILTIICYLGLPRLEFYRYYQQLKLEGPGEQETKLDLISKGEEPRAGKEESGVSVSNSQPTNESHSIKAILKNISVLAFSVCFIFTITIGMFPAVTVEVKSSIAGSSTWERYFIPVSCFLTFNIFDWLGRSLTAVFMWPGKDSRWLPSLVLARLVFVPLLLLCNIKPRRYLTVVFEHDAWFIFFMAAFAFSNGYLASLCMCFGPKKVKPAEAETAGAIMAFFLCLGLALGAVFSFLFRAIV

## Oc1ccc(CCCc2c(O)cc(O)cc2O)cc1
[1]
  Ki: 30 µM

## CC(=O)c1cc(O)cc(O[C@H]2O[C@H](CO)[C@@H](O)[C@H](O)[C@H]2O)c1
[1]
  Ki: > 100 µM

## CC(=O)c1cc(O)cc(O[C@@H]2O[C@H](CO)[C@@H](O)[C@H]2O)c1
[1]
  Ki: > 100 µM

## CC(=O)c1cc(O)cc(O)c1
[1]
  Ki: > 100 µM

## OC[C@H]1O[C@@H](Oc2cc(O)cc(O)c2CCCc2ccc(O)cc2)[C@H](O)[C@@H](O)[C@@H]1O
[1]
  Ki: 12.3 µM

## CC(=O)c1c(O)cc(O)cc1O[C@@H]1O[C@H](CO)[C@@H](O)[C@H]1O
[1]
  Ki: 12.4 µM

## CC(=O)c1c(O)cc(O)cc1O[C@H]1O[C@H](CO)[C@@H](O)[C@H](O)[C@H]1O
[1]
  Ki: 30.8 µM

## CC(=O)c1c(O)cccc1O
[1]
  Ki: > 100 µM

## CC(=O)c1c(O)cccc1O[C@H]1O[C@H](CO)[C@@H](O)[C@H](O)[C@H]1O
[1]
  Ki: 53.9 µM

## CC(=O)c1c(O)cc(O)cc1O [2,4,6-TRIHYDROXYACETOPHENONE]
[1]
  Ki: > 100 µM

## O=[N+]([O-])c1ccc(CSc2ncnc3c2ncn3[C@@H]2O[C@H](CO)[C@@H](O)[C@H]2O)cc1 [NITROBENZYLMERCAPTOPURINE RIBONUCLEOSIDE]
[1]
  Ki: 88 µM

## O=C(CCc1ccc(O)cc1)c1c(O)cc(O)cc1O[C@@H]1O[C@H](CO)[C@@H](O)[C@H](O)[C@H]1O [PHLORIZIN]
[1]
  Ki: 16 µM
[2]
  IC50: 250 µM
[3]
  IC50: 100 µM
[4]
  Ki: > 1000 µM

## CC(=O)c1c(O)cccc1O[C@@H]1O[C@H](CO)[C@@H](O)[C@H]1O
[1]
  Ki: 42.1 µM

## CC(=O)c1ccc(O[C@H]2O[C@H](CO)[C@@H](O)[C@H](O)[C@H]2O)cc1O
[1]
  Ki: > 100 µM

## O=C(CCc1ccc(O)cc1)c1c(O)cc(O)cc1O[C@@H]1O[C@H](CO)[C@@H](O)[C@H]1O
[1]
  Ki: 2.88 µM
[4]
  Ki: > 1000 µM

## O=C(CCc1ccccc1)c1ccccc1O[C@@H]1O[C@H](CO)[C@@H](O)[C@H]1O
[1]
  Ki: > 100 µM

## O=C(CCc1ccc(O)cc1)c1c(O)cc(O)cc1O [PHLORETIN]
[1]
  Ki: 32.3 µM

## O=C(CCc1ccc(O)cc1)c1c(O)cc(O[C@@H]2O[C@H](CO)[C@@H](O)[C@H](O)[C@H]2O)cc1O
[1]
  Ki: > 100 µM

## CC(=O)c1ccc(O)cc1O
[1]
  Ki: > 100 µM
